Here are results for 4 compounds from paper PMC9021956, “Screening and Identification of HBV Epitopes Restricted by Multiple Prevalent HLA-A Allotypes” (Frontiers in Immunology, 2022).

By inhibition is commonly meant the relative decrease from the control value, in per cent.

Where two headings read alike, the source gives them in different places. Residues, ends and D or L forms follow the SMILES beside them.

One assay concerns the target T1, HLA-A0206 (Homo sapiens, UniProt P04439, D140Y/D185E/D98H/E176V/E277Q/F33Y/G131W/G231S/I119V/I121R/I166T/I218V/L300P/L318F/N151K/N90K/P208A/P217A/Q86G/Q94H/R138H/R169H/T345S).
T1 construct: expressed in transfected cells; host or cells: HMy2.CIR
Put plainly: cell-based. It is filed as binding. The conditions noted are these: for inhibition at 5 µM / inhibition at 15 µM: HLA-A0206 HMy2.CIR cells, 24 hours, flow cytometry; for inhibition at 5 µM: competitor peptide 5μM, read-out: 5μM Inhibition (%); for inhibition at 15 µM: competitor peptide 15μM, read-out: 15μM Inhibition (%). Summed up:
(§1)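 Affinity is expressed as IC50 for displacement of the FITC-labeled reference peptide from HLA-A on transfected HMy2.CIR cells. Cell-surface molecules were first emptied by brief acid treatment (pH 3.3) and then refolded with β2-m at 1 μg/mL in the presence of competitor.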
Background: Flow cytometry measures light scatter and fluorescence of single cells or particles in a stream.

A further assay addresses T2, HLA-A0203 (Homo sapiens, UniProt P04439, A173T/D140Y/D185E/D98H/E277Q/G131W/G231S/I119V/I121R/I166T/I218V/L180W/L300P/L318F/N151K/N90K/P208A/P217A/Q86G/Q94H/R138H/R169H/T345S).
T2 construct: expressed in transfected cells; host or cells: HMy2.CIR
Put plainly: cell-based. As to conditions: for inhibition at 5 µM / inhibition at 15 µM: HLA-A0203 HMy2.CIR cells, 24 hours, flow cytometry; for inhibition at 5 µM: competitor peptide 5μM; for inhibition at 15 µM: competitor peptide 15μM. It is filed as binding. The essentials:
as §1

The next assay concerns the target T3, HLA-A3303 (Homo sapiens, UniProt P04439, A270S/D185E/E176V/E277Q/E87N/F33T/G231S/H175R/I121M/I218V/I322F/K168Q/L300P/L318F/M331R/P217A/Q86R/Q94H/R138Q/T323A/T345S/T97I/V358M).
T3 construct: expressed in transfected cells; host or cells: HMy2.CIR
Put plainly: cell-based. It is filed as binding. As to conditions: for inhibition at 5 µM / inhibition at 15 µM: HLA-A3303 HMy2.CIR cells, 24 hours, flow cytometry; for inhibition at 5 µM: competitor peptide 5μM, read-out: 5μM Inhibition (%); for inhibition at 15 µM: competitor peptide 15μM, read-out: 15μM Inhibition (%). The essentials: as §1

In another assay the target is HLA-A2402 (Homo sapiens, UniProt P04439, D101N/D140Y/D185E/E176V/E190D/F33S/G103R/G107R/I119L/I121M/I306V/K335N/L105A/L180Q/L300P/N151K/N90K/Q86E/Q94H/R106L/R138H/R89G/T104I/T345S/V100E/W191G/Y123F). Briefly: cell-based. The class given is binding. The conditions noted are these: for inhibition at 5 µM / inhibition at 15 µM: HLA-A2402 HMy2.CIR cells, 24 hours, flow cytometry; for inhibition at 5 µM: competitor peptide 5μM; for inhibition at 15 µM: competitor peptide 15μM. The essentials: as §1

A further assay concerns the target T4, HLA-A0201 (Homo sapiens, UniProt P04439, D140Y/D185E/D98H/E176V/E277Q/G131W/G231S/I119V/I121R/I166T/I218V/L300P/L318F/N151K/N90K/P208A/P217A/Q86G/Q94H/R138H/R169H/T345S).
T4 construct: expressed in transfected cells; host or cells: HMy2.CIR
Briefly: cell-based. It is filed as binding. As to conditions: for inhibition at 5 µM / inhibition at 15 µM: HLA-A0201 HMy2.CIR cells, 24 hours, flow cytometry; for inhibition at 5 µM: competitor peptide 5μM, read-out: 5μM Inhibition (%); for inhibition at 15 µM: competitor peptide 15μM, read-out: 15μM Inhibition (%). Summed up:
as §1

The next assay has as its target T5, HLA-A0207 (Homo sapiens, UniProt P04439, D140Y/D185E/D98H/E176V/E277Q/G131W/G231S/I119V/I121R/I166T/I218V/L300P/L318F/N151K/N90K/P208A/P217A/Q86G/Q94H/R138H/R169H/T345S/Y123C).
T5 construct: expressed in transfected cells; host or cells: HMy2.CIR
Put plainly: cell-based. It is filed as binding. As to conditions: for inhibition at 5 µM / inhibition at 15 µM: HLA-A0207 HMy2.CIR cells, 24 hours, flow cytometry; for inhibition at 5 µM: competitor peptide 5μM, read-out: 5μM Inhibition (%); for inhibition at 15 µM: competitor peptide 15μM, read-out: 15μM Inhibition (%). The essentials: as §1

Assay [1] has as its system twelve prevalent HLA-A allotypes. Put plainly: Peptide competitive binding assay, whole panel. On the set-up: species or system human. The conditions noted are these: high = IC50<5μM. As for the experimental part:
A set of fluoresce-labeled reference peptides (positive-control peptide) were synthesized with a purity of >99% by Sangon Biotech and stored at 4°C, such as FLPSDK(FITC)FPSV for A0201, A0203 and A0206 ([30]), YVNVNK(FITC)GLK for A1101 and A3303 ([31]), EYLVSK(FITC)GVW for A2402 ([32]), ATFQFK(FITC)VER for A3101, A1102 and A0301 ([33]), KLPDDFK(FITC)GCV for A0207 ([34]), YLEPAK(FITC)AKY for A0101 ([30]), and ASRELK(FITC)VSY for A3001 (identified in house). Then the competitive peptide binding assay was performed as described with minor modifications ([30], [35]). Briefly, the HMy2.CIR cell lines expressing the indicated HLA-A molecule were washed with acid buffer (0.131M citric acid and 0.061M sodium phosphate Na2HPO4, PH3.3, 0.22 μm filtered) for 1 min, and immediately neutralized by IMDM medium containing 0.5% BSA. After washing, the cells were seeded into 96-well U culture plate (1×10^5 cells/100 μL/well) with β2-m (1 μg/mL). […] In parallel, no peptide control well (cells alone) and positive control well (cells with FITC-labeled reference peptide) were also performed.
The plate was centrifuged at 600 rpm for 5 min at room temperature (RT). Cells were washed twice with 100 μL cold 0.5% BSA-PBS. Finally, cells were resuspended with 150 μL PBS and analyzed with flow cytometry. Sample % is the percentage of FITC^+ cells in the experiment well, while the background % is the percentage of FITC^+ cells in the no peptide control well, and the max % is the percentage of FITC^+ cells in the positive control well. Competitive binding (%) = [1-(sample % - background %)/(max % – background %)] × 100%. […] Binding affinity of unlabeled peptide with the indicated HLA-A molecule is assessed by IC50.
Subsequently, the unlabeled epitope peptides of HBV competed with fluorescently labeled reference peptides in the binding with HLA-A molecules onto transfected cell lines for 24 hours. Here, twelve prevalent HLA-A allotypes were tested with totally 62 HBV epitope peptides validated in house.

The next assay deals with T6, HLA-A1102 (Homo sapiens, UniProt P04439, A114D/D185E/E176A/E43K/F33Y/L180Q/S129P/T187R).
T6 construct: expressed in transfected cells; host or cells: HMy2.CIR
Briefly: Peptide competitive binding assay, transfected HMy2.CIR cells, reference ATFQFK(FITC)VER. The essentials: as §1

The target of a further assay is T7, HLA-A0301 (Homo sapiens, UniProt P04439).
T7 construct: expressed in transfected cells; host or cells: HMy2.CIR
The description is as above. Summed up: as §1

The next assay addresses T8, HLA-A1101 (Homo sapiens, UniProt P04439, A114D/D185E/E176A/F33Y/L180Q/S129P/T187R).
T8 construct: expressed in transfected cells; host or cells: HMy2.CIR
Put plainly: cell-based. It is filed as binding. As to conditions: for inhibition at 5 µM: read-out: 5μM Inhibition (%); for inhibition at 15 µM: read-out: 15μM Inhibition (%). The essentials: as §1

The mark [2] stands for this setting: HLA-A1101 HMy2.CIR cells, competitor peptide 5μM, 24 hours, flow cytometry.
Where [3] appears, read: HLA-A1101 HMy2.CIR cells, competitor peptide 15μM, 24 hours, flow cytometry.

For the compound `CC(C)C[C@H](NC(=O)[C@@H](N)Cc1ccccc1)C(=O)N1CCC[C@H]1C(=O)N[C@@H](CO)C(=O)N[C@@H](CC(=O)O)C(=O)N[C@@H](Cc1ccccc1)C(=O)N[C@@H](Cc1ccccc1)C(=O)N1CCC[C@H]1C(=O)N[C@@H](CO)C(=O)O` [Epitope P67] (H-FLPSDFFPS-OH; N-terminus and C-terminus assumed), the IC50 at HLA-A0206 is less than 5 µM; at HLA-A0203, less than 5 µM; on HLA-A3303, more than 15 µM; on HLA-A2402 it was more than 15 µM; at HLA-A0201, less than 5 µM; on HLA-A0207, more than 15 µM. Moreover, the inhibition at 5 µM at HLA-A0206 turned out to be 95.7%; at HLA-A0203, 86.3%; at HLA-A3303, 0%; on HLA-A2402, 2%; at HLA-A0201, 91.5%; on HLA-A0207, 42%. Moreover, the inhibition at 15 µM on HLA-A0206 turned out to be 100%; at HLA-A0203, 91.5%; on HLA-A3303, 0%; at HLA-A2402, 4.3%; on HLA-A0201, 97.8%; at HLA-A0207 it was 48%. Also, in assay [1], the “number of HLA-A allotypes bound with high affinity” value (“number of HLA-A allotypes bound” below) was “three”.
On to `CC(C)C[C@H](NC(=O)[C@H](CC(N)=O)NC(=O)CNC(=O)[C@H](Cc1c[nH]cn1)NC(=O)[C@H](C)NC(=O)[C@H](CC(N)=O)NC(=O)[C@@H](NC(=O)[C@@H](N)[C@@H](C)O)C(C)C)C(=O)N1CCC[C@H]1C(=O)N[C@@H](CCCCN)C(=O)O` [Epitope P47] (H-TVNAHGNLPK-OH; N-terminus and C-terminus assumed), for which the inhibition at 5 µM on HLA-A1102 (HLA-A1102 HMy2.CIR cells, competitor peptide 5μM, 24 hours, flow cytometry, read-out: 5μM Inhibition (%)) worked out at 24.7%; on HLA-A0301 (HLA-A0301 HMy2.CIR cells, competitor peptide 5μM, 24 hours, flow cytometry, read-out: 5μM Inhibition (%)), 65.8%; on HLA-A1101 (setting [2]), 78.3%; on HLA-A0201, 7.2%. The inhibition at 15 µM stood at 44.2% at HLA-A1102 (HLA-A1102 HMy2.CIR cells, competitor peptide 15μM, 24 hours, flow cytometry, read-out: 15μM Inhibition (%)); 78.1% at HLA-A0301 (HLA-A0301 HMy2.CIR cells, competitor peptide 15μM, 24 hours, flow cytometry, read-out: 15μM Inhibition (%)); 90.3% at HLA-A1101 (setting [3]); 12% on HLA-A0201. Also, the IC50 at HLA-A1102 (read-out: Affinity) was more than 15 µM; at HLA-A0301 (read-out: Affinity), less than 5 µM; at HLA-A1101 it was less than 5 µM; on HLA-A0201, more than 15 µM. In addition, in [1], the “number of HLA-A allotypes bound” value is on record as “two”.
Consider `CC[C@H](C)[C@H](NC(=O)CNC(=O)[C@H](CC(C)C)NC(=O)[C@H](CO)NC(=O)[C@H](CC(C)C)NC(=O)[C@H](CC(C)C)NC(=O)[C@@H](N)Cc1ccccc1)C(=O)N[C@@H](Cc1c[nH]cn1)C(=O)N[C@@H](CC(C)C)C(=O)O` [Epitope P10], for which the inhibition at 5 µM on HLA-A0206 is 21.5%; on HLA-A1101 (setting [2]) it was 7.2%; on HLA-A3303, 60.1%; on HLA-A2402, 19%; at HLA-A0201 it was 81.7%; on HLA-A0207 it was 27%. The inhibition at 15 µM on HLA-A0206 was 43.2%; on HLA-A1101 (setting [3]), 8%; on HLA-A3303, 66.1%; on HLA-A2402, 17%; on HLA-A0201, 71.6%; at HLA-A0207, 31%. Further, in assay [1], the “number of HLA-A allotypes bound” value was “two”.
Consider `CC[C@H](C)[C@H](NC(=O)[C@H](Cc1c[nH]c2ccccc12)NC(=O)[C@@H](NC(=O)CNC(=O)[C@H](Cc1ccccc1)NC(=O)[C@H](CO)NC(=O)[C@@H](NC(=O)[C@H](CC(C)C)NC(=O)[C@@H](N)Cc1ccc(O)cc1)C(C)C)C(C)C)C(=O)O` [Epitope P11], for which the IC50 on HLA-A0203 is less than 5 µM; on HLA-A1101, more than 15 µM; on HLA-A3303, more than 15 µM; at HLA-A0201, less than 5 µM. Also, the inhibition at 5 µM at HLA-A0203 came to 89.4%; at HLA-A1101 (24 h) it was 17.1%; at HLA-A3303, 10.2%; at HLA-A2402 it was 41%; on HLA-A0201, 81.2%. For the same compound, the inhibition at 15 µM came to 97.4% on HLA-A0203; 20% at HLA-A1101 (24 h); 4.63% on HLA-A3303; 52.5% on HLA-A2402; 96.2% at HLA-A0201. The Affinity result at HLA-A2402 is “inter”. Besides, the “number of HLA-A allotypes bound” value in [1] is listed as “two”.
